ChEMBL document CHEMBL5727723, “(S)-5-ethynyl-anabasine, derivatives thereof, and related compositions and methods of making and using” (2020)
pEC50: −log10 of the molar value.

Test: functional assay: Nematode eggs are isolated from fresh feces by centrifugation and flotation. The eggs are washed and inspected to confirm embryonation has not started. Each sample is tested at six concentrations of a test compound (e.g., 0.02, 0.05, 0.1, 0.25, 0.5 and 1.0 μg/ml) and a negative control (no compound). After incubation for 48 h, the assay is ended, and all eggs and larvae present in each well are counted. The Hill equation with a variable slope is used to fit the dose-response relations using GraphPad Prism. The EC50-values and 95% confidence intervals are calculated.
With `CN1CCCCC1c1cccnc1` (centres undefined) the pEC50 was > 4.00.
With `CN1CCC[C@H]1c1ccc[n+](C)c1` the pEC50 was > 4.00.
`CN1CCCC1c1ccc(N)nc1` (centres undefined) showed a pEC50 of 4.91.
For `CN1C(=O)CC[C@H]1c1cccnc1` [COTININE], the pEC50 was > 4.00.
